# From ChEMBL document CHEMBL1131983, “Synthesis of piperazine derivatives and evaluation of their antihistamine and antibradykinin effects” (Bioorg Med Chem Lett, 1999)
# What was measured:
# Format in all cases: tissue-based
# [1] = molecular target: Histamine H1 receptor (Cavia porcellus) (UniProt P31389); assay: In vitro inhibitory activity against histamine H1 receptor in guinea-pig ileum at 0.1 uM
# [2] = molecular target: T1, B2 bradykinin receptor (Rattus norvegicus) (UniProt P25023); assay: In vitro inhibitory activity against Bradykinin receptor B2 in isolated rat ileum at 0.1 uM
# T1 sequence (whole entry): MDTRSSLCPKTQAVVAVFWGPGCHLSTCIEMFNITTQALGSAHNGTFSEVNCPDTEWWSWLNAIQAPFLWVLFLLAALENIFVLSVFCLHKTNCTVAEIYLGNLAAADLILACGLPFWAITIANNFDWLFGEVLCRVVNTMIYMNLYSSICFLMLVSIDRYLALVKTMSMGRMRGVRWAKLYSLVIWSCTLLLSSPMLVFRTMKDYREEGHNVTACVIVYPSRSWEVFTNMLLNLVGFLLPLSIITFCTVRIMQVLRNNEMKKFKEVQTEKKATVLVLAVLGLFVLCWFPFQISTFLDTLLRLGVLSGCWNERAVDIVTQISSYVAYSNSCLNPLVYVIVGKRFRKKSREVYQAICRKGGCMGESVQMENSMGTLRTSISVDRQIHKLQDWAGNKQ
# [3] = molecular target: T1, B2 bradykinin receptor (Rattus norvegicus); assay: In vitro inhibitory activity against Bradykinin receptor B2 in isolated rat ileum at 0.1uM; '-' indicates activation
# Chain of Histamine H1 receptor (Cavia porcellus) (P31389 whole entry): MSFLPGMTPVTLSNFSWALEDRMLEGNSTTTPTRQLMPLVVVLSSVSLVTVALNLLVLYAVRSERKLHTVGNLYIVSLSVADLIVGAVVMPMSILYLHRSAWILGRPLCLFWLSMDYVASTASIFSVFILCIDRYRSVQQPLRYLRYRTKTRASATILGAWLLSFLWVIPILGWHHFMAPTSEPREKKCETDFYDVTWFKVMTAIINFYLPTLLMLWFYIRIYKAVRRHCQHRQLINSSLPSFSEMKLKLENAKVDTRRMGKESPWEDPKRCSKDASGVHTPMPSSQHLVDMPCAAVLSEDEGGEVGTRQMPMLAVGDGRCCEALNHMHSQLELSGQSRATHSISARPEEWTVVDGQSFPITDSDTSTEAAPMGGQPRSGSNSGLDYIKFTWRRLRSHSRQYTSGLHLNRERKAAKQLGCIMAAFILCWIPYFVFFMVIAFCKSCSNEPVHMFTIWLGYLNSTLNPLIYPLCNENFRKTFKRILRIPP
Structure (SMILES),inhibition [1] [%],inhibition [2] [%],inhibition [3] [%]
Clc1ccc(C(c2ccccc2)N2CCN(CCCOCc3cccc4ccccc34)CC2)cc1 (centres undefined),63,11.9,–
O=C(O)COC(CCN1CCN(C(c2ccccc2)c2ccc(Cl)cc2)CC1)c1ccccc1 (centres undefined),52.7,25.4,–
Clc1ccc(C(c2ccccc2)N2CCN(CCOCc3ccc4ccccc4c3)CC2)cc1 (centres undefined),10,–,-9.5
CC(CN1CCN(C(c2ccccc2)c2ccc(Cl)cc2)CC1)(OCC(=O)O)c1ccccc1 (centres undefined),12.5,45.6,–
COc1ccc(COCCN2CCN(C(c3ccccc3)c3ccc(Cl)cc3)CC2)cc1 (centres undefined),78.5,8.7,–
O=C(O)COC(CCc1ccccc1)CN1CCN(C(c2ccccc2)c2ccc(Cl)cc2)CC1 (centres undefined),11,–,-3.7
CC(COCC(=O)O)CN1CCN(C(c2ccccc2)c2ccc(Cl)cc2)CC1 (centres undefined),14.3,25,–
COc1cccc(COCCN2CCN(C(c3ccccc3)c3ccc(Cl)cc3)CC2)c1 (centres undefined),33,–,-10
O=C(O)C(OCCN1CCN(C(c2ccccc2)c2ccc(Cl)cc2)CC1)c1ccccc1 (centres undefined),43.7,9.1,–
O=C(O)COC(CN1CCN(C(c2ccccc2)c2ccc(Cl)cc2)CC1)c1cccc2ccccc12 (centres undefined),57,26.6,–
O=C(O)COCCN1CCN(C(c2ccccc2)c2ccc(Cl)cc2)CC1 (centres undefined),50.7,27,–
CC(C)c1ccc(COCCN2CCN(C(c3ccccc3)c3ccc(Cl)cc3)CC2)cc1 (centres undefined),77.5,5,–
Clc1ccc(C(c2ccccc2)N2CCN(CCOCc3cccc4ccccc34)CC2)cc1 (centres undefined),20,17,–
CC(C)(COCC(=O)O)CN1CCN(C(c2ccccc2)c2ccc(Cl)cc2)CC1 (centres undefined),42.9,33.4,–
CCC(OCCN1CCN(C(c2ccccc2)c2ccc(Cl)cc2)CC1)C(=O)O (centres undefined),10.2,12.6,–
O=C(O)Cc1ccc(COCCN2CCN(C(c3ccccc3)c3ccc(Cl)cc3)CC2)cc1 (centres undefined),28.4,36.6,–
Clc1ccc(C(c2ccccc2)N2CCN(CCCOCc3ccc4ccccc4c3)CC2)cc1 (centres undefined),26.4,17.7,–
